# Biological target: MlaC (Smlt4673) (Stenotrophomonas maltophilia, UniProt B2FP85)
# Assay: MicroScale Thermophoresis (MST), supported by nanoDSF Tm shift
# Format: binding
# Sequence of MlaC (Smlt4673) (B2FP85 entry or part of it): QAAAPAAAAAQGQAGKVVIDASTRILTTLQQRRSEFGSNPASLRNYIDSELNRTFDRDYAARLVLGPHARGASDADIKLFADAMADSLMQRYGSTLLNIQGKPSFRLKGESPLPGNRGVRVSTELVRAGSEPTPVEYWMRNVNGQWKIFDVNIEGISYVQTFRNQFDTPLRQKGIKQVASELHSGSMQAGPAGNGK
smiles,measurement,value
"CCCCCCCCCCCCCC(=O)OC[C@H](COP(=O)(O)OCCN)OC(=O)CCCCCCCCCCCCC [PE14/14, PE C14:0/C14:0]",Kd,795 µM
